{
  "source": "patent US20170239283A1",
  "about": "“USE OF STING AGONISTS TO TREAT VIRALLY-INDUCED AND PRE-MALIGNANT GROWTHS” (Providence Health & Services - Oregon, priority 2016, published 2017)",
  "key": {"[1]": {"system": "Murine bone marrow-derived macrophages", "assay": "M1/M2 differentiation of macrophages, Western blotting for iNOS and arginase I", "format": "cell-based", "settings": "24 hours treatment, then IFNγ (20 ng/ml) or IL-4 (20 ng/ml)", "experimental": "FIG. 5 is a digital image of a Western blot for iNOS, Arginase I, and GAPDH in murine bone marrow-derived macrophages treated with compounds targeting TLR4 (LPS), STING (CDA), NOD2 (PGNECndss), TLR7 (Imiquimod), TLR9 (class A CpG), or RIGI (ppp5′dsRNA), then treated with IFNγ (20 ng/ml) or IL-4 (20 ng/ml).\nMurine bone marrow-derived macrophages were treated for 24 hours with a range of immunological adjuvants targeting STING (CDA), NOD2 (PGNECndss), TLR7 (imiquimod), TLR9 (class A CpG), or RIGI (ppp5′dsRNA), then treated with IFNγ (20ng/ml) or IL-4 (20ng/ml) to direct M1 or M2 differentiation, respectively. Ligation of TLR4 (LPS) was a positive control. M1 differentiation was distinguished by expression of iNOS, and M2 differentiation by expression of arginase I as measured by Western blotting."}, "[2]": {"system": "papilloma", "format": "in vivo, mice", "settings": "for papilloma size: larger 3-15 mm papilloma, 25 μg injected on d0, d1, d7 and d8", "excerpt": "Pdx-Cre^+/− (Stock190 014647, Jackson Laboratories, Bar Harbor, Me.), Kras^(G12D)+/− (Stock#008179, Jackson Laboratories), and Trp53^(R172H)+/− (Stock#01XM2, NCI Fredrick Mouse Repository) mice were crossed to generate Pdx-Cre^+/− Kras ^(G12D)+/− Trp53^(R172H)+/− that generate pancreatic tumors (Hingorani et al., Cancer Cell 7:469-483, 2005). At variable penetrance, mice develop papilloma of the face and anogenital region (Hingorani et al., Cancer Cell 7:469-483, 2005; Gades et al., Comp. Med. 58:271-275, 2008). Mice bearing papilloma with no evidence of pancreatic tumors and less than 90 days of age were accrued to this study. Masses were treated by injection of 25 μg of c-di-CDG (Invivogen, San Diego, Calif., Catalog No. tlrl-naldg), Imiquimod (Invivogen) or PBS vehicle.\nSTING ligands were administered into the papilloma by direct injection with a total dose of 25 μg administered in a 25 μl injection volume. In the control case, 25 μg of Imiquimod was administered using the same technique. For larger papillomas, the injection was split between different sites within the same growth. The total dose to the growth remained 25 μg in each case. The animals were retreated on day 7 with a second cycle of injections.\nRapid alterations in small papilloma to resemble normal skin were observed within 18 hours of treatment (FIGS. 2A and B). In pilot studies, mice bearing papilloma were randomly assigned to treatment with the STING ligand c-di-GMP (CDG) or PBS vehicle control. In an example of a mouse with two small papilloma on the face, one was treated by direct injection of CDG, and the other given vehicle control (FIG. 2A, left). The CDG-injected papilloma rapidly reverted to normal skin within 18 hours (FIG. 2A, right). […] Injection of STING ligand into histologically normal skin at distant sites or in normal mice had no observable effect (not shown).\nIn addition, very large papilloma was treated with two cycles of treatment separated by 1 week, resulting in dramatic tumor regression (FIG. 3A). […] We tested treatment of larger, 3-15 mm papilloma with STING ligands. […] Therefore, we developed a treatment course consisting of injections on d0 and d1, and again on d7 and d8 as the papilloma decreased in size (FIG. 3B). Mice were randomized to receive CDG, to conventional treatment with the TLR7 ligand imiquimod, or PBS vehicle."}, "[3]": {"system": "papilloma", "assay": "CD3+ T cell infiltration and histology of treated papilloma", "format": "in vivo, mice", "settings": "for infiltrating CD3+ T cells in papilloma: 24 hours after injection of 25 μg", "experimental": "FIGS. 4A-C are a series of digital images showing infiltration of T cells following treatment with STING ligand. […] Sections were stained for CD3 and DAPI nuclear counterstain. […] Both papilloma sites were harvested 24 hours later and stained for CD3 and DAPI nuclear counterstain on the i) treated and ii) untreated opposite side papilloma.\nTo investigate the effect of treatment on T cell infiltration, which we and others have shown play a role in clearance of advanced cancers following administration of STING ligands (Baird et al., Cancer Res. 76:50-61, 2016; Corrales et al., Cell Rep. 11:1018-1030, 2015), papilloma were stained for infiltrating CD3^+ T cells."}, "[4]": {"system": "cervical dysplasia", "settings": "added to excisional therapies, randomized clinical trials; cited from earlier work"}},
  "data": [
    {"compound": "Nc1ncnc2c1ncn2[C@@H]1O[C@@H]2COP(=O)(O)O[C@H]3[C@@H](O)[C@H](n4cnc5c(N)ncnc54)O[C@@H]3COP(=O)(O)O[C@H]2[C@H]1O", "note": "[CDA, cyclic diadenylate monophosphate]", "values": [
      {"measurement": "M1 (iNOS) / M2 (arginase I) differentiation of macrophages", "setting": "[1]", "value": "prevented M2 differentiation by IL-4 without driving M1 differentiation"}
    ]},
    {"compound": "Nc1nc2c(ncn2[C@@H]2O[C@@H]3COP(=O)(O)O[C@H]4[C@@H](O)[C@H](n5cnc6c(=O)[nH]c(N)nc65)O[C@@H]4COP(=O)(O)O[C@H]3[C@H]2O)c(=O)[nH]1", "note": "[CDG, cyclic diguanylate monophosphate]", "values": [
      {"measurement": "toxicity", "setting": "[2]; 25 μg direct injection", "value": "non-toxic at these doses"},
      {"measurement": "effect of a single injection on larger papilloma", "setting": "[2]; 3-15 mm papilloma, single injection", "value": "rapid loss of papilloma around the injection site, but these did not fully regress"},
      {"measurement": "appearance of injection site", "setting": "[2]; 18 hours after injection into small papilloma", "value": "slight reddening"},
      {"measurement": "papilloma size", "setting": "[2]", "value": "significantly decreased papilloma size"},
      {"measurement": "complete regression of papilloma", "setting": "[2]; larger papilloma, injections on d0, d1, d7 and d8", "value": "complete regression of some papilloma"},
      {"measurement": "time for injected small papilloma to revert to normal skin", "setting": "[2]; mouse with two small papilloma on the face, direct injection of 25 μg", "value": "≤ 18", "unit": "h"},
      {"measurement": "regression of experimental papilloma", "setting": "[2]; small papilloma, direct injection of 25 μg", "value": "rapid, site-specific regression of experimental papilloma"},
      {"measurement": "infiltrating CD3+ T cells in papilloma", "setting": "[3]", "value": "CD3^+ T cells were found associated with the normalized skin epithelium"},
      {"measurement": "T cells in normalized skin", "setting": "[3]; 14 days following treatment", "value": "enriched in the normalized skin"},
      {"measurement": "T cell infiltration in treated versus untreated papilloma of the same mouse", "setting": "[3]; mice with more than one papilloma, one treated, 24 hours", "value": "T cell infiltration and control only in the treated papilloma"}
    ]},
    {"compound": "CC(C)Cn1cnc2c(N)nc3ccccc3c21", "note": "[imiquimod]", "values": [
      {"measurement": "papilloma size", "setting": "[2]", "value": "did not significantly affect the size of the papilloma"},
      {"measurement": "infiltrating CD3+ T cells in papilloma", "setting": "[3]", "value": "Few to no T cells were detected"},
      {"measurement": "M1 (iNOS) / M2 (arginase I) differentiation of macrophages", "setting": "[1]", "value": "can drive macrophages into either M1 or M2 differentiation"},
      {"measurement": "rate of recurrence of cervical dysplasia", "setting": "[4]", "value": "neither approach impacts the rate of recurrence"}
    ]},
    {"compound": "interferon alpha", "values": [
      {"measurement": "rate of recurrence of cervical dysplasia", "setting": "[4]", "value": "neither approach impacts the rate of recurrence"}
    ]}
  ]
}
